# Assay results: patent US20220280513A1, “ENHANCING THE ANTIVIRAL EFFICACY OF RNA VIRUS INHIBITION BY COMBINATION WITH MODULATORS OF PYRIMIDINE METABOLISM” (The Board of Trustees of the Leland Stanford Junior …, priority 2019, published 2022)
# Assays:
# [1] = system: intracellular uridine and cytidine nucleotide levels; assay: LC-MS/MS analysis of intracellular nucleotides in A549 cells; format: cell-based; conditions: 250 μM with 1 μM GSK983, 5 μM uridine, 6 h
# Protocol: FIG. 7. LC-MS analysis of intracellular nucleotides. (A) LC-MS analysis of intracellular uridine and cytidine nucleotide levels after 6 h treatments. In all assays, the culture medium was supplemented with 5 μM uridine and 1 μM GSK983. Error bars represent ±S.D. of two replicates. (B) LC-MS detection of mono-, di- and tri-phosphates of CPU and 5-F-CPU in cells. LC-MS/MS was performed on an Agilent 1290 infinity II LC system tandem with 6370 triple quad mass spectrometer using ion pairing chromatography. LC separation was performed at 40° C. with a solvent flow rate of 0.25 mL/min on a Zorbax RRHD Extended-C18 column (2.1×150 mm, 1.8 μM). Buffer A contained 97% H2O, 3% MeOH, 5 mM tributylamine, 5.5 mM Acetic acid and 1 μM medronic acid with pH=5.0; Buffer B contains ca. 100% MeOH, 5 mM tributylamine, 5.5 mM Acetic acid and 5 μM medronic acid with pH=7.0 The initial mobile phase composition was 100% solvent A, and a constant or linear gradient was applied after sample injection with eluent B varying as follows: 0% at 2.5 min, 20% at 7.5 min, 45% at 14 min, 99% at 20 to 23 min, and 0% from 23.1 to 27.1 min. […] Samples were measured in the negative ESI mode with capillary voltage at −3.5 kV. […]
# With optimized sampling and detection method in hand, pyrimidine nucleotide levels were measured in cells cultured with either 250 μM CPU, 5-F-CPU or 5′-F-CPU in combination with 1 μM GSK983 (FIG. 7A). […]
# DENV-2 virus = assay: DENV antiviral assay, DENV-Luc replication in A549 cells (FIGS. 8 and 9); format: cell-based, dengue serotype 2 (DENV-2) strain 16681
# Protocol: DENV-Luc reporter virus generation: The design of the pDENV-Luc infectious clone derived from dengue serotype 2 (DENV-2) strain 16681 was described in detail by Marceau et al (Marceau et al., 2016). The plasmid was linearized with Xbal and in vitro transcribed into the genomic RNA of DENV-Luc virus using the T7 Megascript Kit (Ambion) in the presence of m7G(5′)ppp(5′)G RNA Cap Structure Analog (NEB). 5 μg DENV-Luc RNA was electroporated into 2×10^6 Vero cells. The transfected cells were resuspended with Dulbecco's modified Eagle's medium (DMEM; Invitrogen) with 10% FBS and 100 U/ml penicillin-streptomycin and transferred into a T-175 flask incubated at 37° C. with 5% CO2. Supernatants were collected and replenished with fresh medium every 24 h from day 17 to 24 post-transfection, pooled together, clarified by centrifugation and stored in aliquots at −80° C. The amount of infectious DENV-Luc virus in the stock was titrated using the TCID50 assay and calculated by the Spearman & Kärber algorithm as described previously (Hierholzer and Killington, 1996).
# DENV antiviral assays (For FIGS. 8 and 9): A549 cells were plated overnight at 5,000 cells/well in 96-well plates in complete DMEM and incubated for 24 h at 37° C. Cells were then treated with pyrimidine de novo synthesis inhibitors, and/or salvage inhibitors, and/or R1479 in DMEM supplemented with 20 μM uridine. Four hours after drug addition, cells were infected with DENV-2 virus at a MOI=0.1. After 72 h, DENV-Luc replication was monitored by the production of Renilla luciferase, which was measured using the Renilla-Glo Luciferase Assay System (Promega) according to the specifications of the manufacturer. For the accompanying cell viability assay, A549 cells were seeded at 5,000 cells/well in 96-well plates in complete DMEM and incubated for 24 h at 37° C. Cell were then treated with pyrimidine de novo synthesis inhibitors, and/or salvage inhibitors, and/or R1479 in DMEM supplemented with 20 μM uridine. Following 48 h treatment, cell viability was monitored by ATP levels, which was measured using the CellTiter-Glo Luciferase Assay System (Promega) according to the specifications of the manufacturer.
smiles,measurement,setting,value
"O=c1ccn([C@@H]2C=C(CO)[C@@H](O)[C@H]2O)c(=O)[nH]1 [CPU, 1-((1R,4R,5S)-4,5-dihydroxy-3-(hydroxymethyl)cyclopent-2-en-1-yl)pyrimidine-2,4(1H,3H)-dione]",depletion of UTP and CTP concentrations,[1],more strongly than 5-F-CPU
same,"dengue virus replication, combination","DENV-2 virus; CPU (500 μM) combined with 1 μM GSK983, 20 μM uridine",suppressed dengue virus
same,antiviral activity as single agent,"DENV-2 virus; single agents, 20 μM uridine",neither GSK983 nor CPU were effective
